Literature values in patent publication US8071619B2, “Injectable liquid formulation of paracetamol” (priority 2003, dated 2011).

Details: aqueous solution; K. T. Koshy et al., 1961

- pH at which the rate of degradation of paracetamol is minimal: ~6
Compound: CC(=O)Nc1ccc(O)cc1 [paracetamol, N-(4-hydroxy-phenyl)acetamide]
